Measurements reported in US20070054868A1, “Synergistic polyphenol compounds, compositions thereof, and uses thereof” (The Trustees of Columbia University in the City of New York, priority 2005, published 2007).
Entries after “also recorded” stand apart in the source; their conditions may differ.

Columns and labels:
[1] = tested on: FHC; assay: Growth inhibition IC50 against normal fetal colon cell line; type: cell-based, human; conditions: conclusion from Table 4
From the text: Cell lines and cell culture. The Caco2, HCT116, HT29, SW480, and SW837 human colorectal cancer cell lines and the FHC normal human fetal colon cell line were obtained from American Type Culture Collection (Manassas, Va.). All cell lines were maintained in DF10 medium containing DMEM (Invitrogen, San Diego, Calif.) supplemented with 10% fetal bovine serum (Invitrogen). The FHC cell line was originally established from the colon of a human fetus at 13 weeks of gestation and has an epithelial morphology. Cells were cultured in an incubator with humidified air at 37° C. with 5% CO2. As an untreated solvent control, cells were treated with DMSO (Sigma Chemical Co., St. Louis, Mo.) at a final concentration of <0.1%. […] Cells to be tested against were plated onto 96-well plates (3×10^3 cells/well) and twenty-four hours later, the cells were treated with an illustrative Synergistic Polyphenol Composition, or one or more illustrative Synergistic Polyphenol Compounds. Neither the medium nor the test compounds were changed during this time period. The assay was done in triplicate. […] The medium and test compounds were not changed during this time period. As a control, the cells were treated with 0.1% DMSO. […] The numbers of cells in replica plates were then determined using a Coulter Counter (Beckman Coulter Co., Fullerton, Calif.) as described in Shimizu et al., Clin. Cancer Res. 2004: 10:1130-40.

[2] = tested on: p-HER3; assay: Immunoprecipitation and western blot analysis in SW837 cells; type: cell-based, human
From the text: Total cellular protein was extracted and equivalent amounts of protein can be determined by western blot analysis using the methods described in Suzui, et al., Cancer Res., 62:3997-4006 (2002). The primary antibodies for several proteins are described in Masuda et al., Clin Cancer Res., 7:4220-4229 (2001); Masuda et al., Clin Cancer Res., 9:3486-3491 (2003); and Shimizu et al., Clin Cancer Res., 11:2735-2746 (2005). The primary antibodies for HER3 (2F12) and COX-2 (PG27) were purchased from Upstate Cell Signaling Solutions (Charlottesville, Va.) and Oxford Biochemical Research (Oxford, Mich.), respectively. To examine the levels of expression of the phosphorylated (i.e. activated) form of the HER3 protein (p-HER3), cellular lysates (1 mg/mL) were incubated with 4 μg anti-HER3 antibody overnight at 4° C. with slow agitation, and immune complexes were then precipitated by adding protein A/G agarose (sc-2003, Santa Cruz Biotechnology, Santa Cruz, Calif.). After incubating for 2 hours at 4° C., the beads were washed with lysis buffer, and bound proteins were eluted into the sample buffer and subjected to western blot analysis, as described above. The p-HER3 protein was then detected by using an anti-phospho-tyrosine antibody (PY-20-HRP, BD Transduction Laboratories, San Diego, Calif.). An antibody to actin was used as a loading control. […]

[3] = tested on: COX-2 mRNA; assay: Semiquantitative RT-PCR analysis in SW837 cells; type: cell-based, human; conditions: 20 μg/mL
Description: RNA extraction and semiquantitative RT-PCR analysis were performed using the methods described in Suzui, et al., Cancer Res., 62:3997-4006 (2002). Total RNA was isolated from SW837 human colon cancer cells using Trizol reagent (Invitrogen) according to the manufacturer's instructions. cDNA was amplified from 1 μg of total RNA using SuperScript one-step RT-PCR with the platinum Taq system (Invitrogen). PCR was conducted for 25 cycles in a thermal controller (Programmable Thermal Controller; MJ Research Inc., Watertown, Mass.). The COX-2 specific primer sets […]-2 ([NT]) and […]-2 ([NT]) were designed using the sequence described in Hla et al., Proc. Natl. Acad. Sci. USA, 89:7384-7388 […]. Actin specific primer sets and the amplification cycle conditions were as described in Suzui, et al., Cancer Res., 62:3997-4006 (2002). The intensities of mRNA bands were quantified using NIH Image software version 1.62.

[4] = tested on: SW837 human colon cancer cells; assay: DNA fragmentation assay (Cell Death Detection ELISA), apoptosis; type: cell-based
Description: SW837 human colon cancer cells (5.0×10^5 cells/6-cm diameter dish) were treated with EGCG (1.0 or 20 μg/mL) for 48 or 96 hours, and samples were then prepared. Control cells were treated only with DMSO. The extent of DNA fragmentation at time 0 hours was set to 1 and increases expressed as fold activation.

[5] = tested on: PGE2; assay: PGE2 production assay (EIA) in SW837 cells; type: cell-based, human; conditions: 10, 20 or 40 μg/mL, 18 hours, 20 μM arachidonic acid
Description: SW837 human colon cancer cells were plated into 35-mm dishes and grown to 60% confluence. The cells were then treated with EGCG (0, 10, 20, or 40 μg/mL) in serum minus medium containing 20 μM arachidonic acid (Sigma) for 18 hours. The cell free medium was then collected and the amounts of PGE2 released by cells into the medium were measured using an EIA kit (Cayman Chemicals, Ann Arbor, Mich.), according to the manufacturer's instructions. Production of PGE2 was normalized to the protein concentration of the cells.

[6] = tested on: HepG2 human liver cancer cells; assay: MTT cell proliferation assay; type: cell-based
Description: (§1) Using the MTT cell proliferation assay described in Example 21, and substituting HepG2 human liver cancer cells in place of SW837 cells, the effects of EGCG (20 μg/mL), an illustrative Synergistic Polyphenol Compound, on the production of IGF-1, IGF-2 and IGFBP-3 was determined. […] Accordingly, the Synergistic Polyphenol Compounds are useful for treating or preventing liver cancer.

[7] = tested on: IGF-1; assay: Production of growth factors in HepG2 cells; type: cell-based, human; conditions: 20 μg/mL, listed as EGCG
Description: (§2) The cells were treated with […] EGCG at 0, 3, 6, 12, 24 and 48 hours, and cell extracts were examined by Western blot analysis using the respective antibodies, or were examined by semiquantitative RT-PCR analysis using IGFBP-3 or IGF-1 specific primers.
as §1

[8] = tested on: IGF-2; assay: Production of growth factors in HepG2 cells; type: cell-based, human; conditions: 20 μg/mL, listed as EGCG
Description: as §2, §1

[9] = tested on: HT29 cells; assay: Incorporation of DilC16 into the plasma membrane after pretreatment; type: cell-based, human; conditions: HT29 pretreated with test substance
[10] = obtained in a clinical study; value said to be in the range of the peak; cited from earlier work

Substance: (−)-epigallocatechin gallate
- growth inhibition of colorectal cancer cells relative to FHC normal cells [1]: preferentially inhibit
- levels of the p-HER3 protein ([2]; 1.0 μg/mL, 96 hours): decrease
- levels of the p-HER3 protein ([2]; 20 μg/mL, within 6 hours): marked decrease
- cellular level of the COX-2 mRNA ([3]; at 48 hours): marked decrease
- cellular level of the COX-2 mRNA ([3]; beginning at about 6 hours): progressive decrease
- apoptosis (DNA fragmentation) ([4]; 1.0 μg/mL, 96 hours): significant increase
- apoptosis (DNA fragmentation) ([4]; 20 μg/mL, 48 hours): induction of apoptosis
- levels of PGE2 [5]: decrease
- IC50, growth of HepG2 cells [6]: 21 µg/mL
- production of IGF-1 [7]: inhibited production; also recorded: decreased the production
- production of IGF-2 [8]: inhibited production; also recorded: decreased the production
- subsequent incorporation of DilC16 into the plasma membrane [9]: inhibit
- peak plasma concentration [10]: ~1.0 µg/mL
